Test [1] relates to souris. The experiment in a line: Comparative DNFB contact hypersensitivity test, conjugate versus its peptide alone (Example 9). It is filed as in vivo. The source says:
La méthode utilisée est celle décrite précédemment dans l'exemple N° 4, hypersensibilité de contact induite chez la souris par la D N F B. • Produits étudiés Lot I : [formula] - Conjugué 1 représenté par le composé P3. Lot II : Me.Nle - Glu - His - D-homo-Phé - Arg - Trp - Gly - NH2 Lot T : Témoin = Acide trans-10-hydroxy-2-décénoïque.
Solvant : le propylène glycol précédemment employé comme témoin dans l'exemple 6.
Une mesure de l'activité du témoin sera effectuée pour chaque expérimentation. - Expérimentation et posologie
Témoin: 10 ng d' acide trans-10-hydroxy-2-décénoïque par souris et par jour.
Au cinquième jour, trente minutes après la dernière application toutes les souris sont sensibilisées avec 25 µl de D N F B (2.4-dinitro-1-fluorobenzène (FLUKA CHEMIKA PURUM à 97 % lot N° 33820890)) à 2 % dans un mélange 4 pour 1 d'acétone (SDS réf. 05510) et de trioléine (FLUKA) appliqué par voie topique sur la région dorsale de peau rasée. Au sixième jour, on procède à une nouvelle sensibilisation par application de D N F B. Au onzième jour, l'épaisseur des oreilles des souris, est mesurée à l'aide d'un micromètre (ROCH 0 à 25 mm au 1/100 mm) afin d'obtenir des valeurs de base, puis les oreilles sont stimulées par application topique de 20 µl de D N F B à 0,8 %. Au douzième jour, l'épaisseur des oreilles est à nouveau mesurée. On établit la valeur moyenne de l'épaississement des oreilles pour les souris des lots qui ont reçu les produits à étudier, ainsi que pour les souris du lot témoin.Le pourcentage de suppression éventuelle sera exprimé par la même équation que dans l'exemple 6.

For test [2], the system named is souris femelles C57 BL/6JICO. Description: Contact hypersensitivity test to dinitrofluorobenzene (DNFB), anti-allergic activity, topical application (Example 6). It is filed as in vivo. As to conditions: for % Augment. O. Gauche / % Augment. O. Droite: increase of ear thickness; for % Augment. O. Gauche / % Suppress. O. Gauche: left ear; for % Augment. O. Droite / % Suppress. O. Droite: right ear; for % Suppress. O. Gauche / % Suppress. O. Droite: suppression versus control lot. The source says: Des souris femelles C57 BL/6JICO, âgées de 5 semaines sont réparties en dix lots de dix animaux (cinq par cage), avec libre accès à l'eau et à la nourriture, soumises à une photopériode de douze heures de lumière par vingt-quatre heures.
Les animaux des lots 1 à 6 reçoivent quotidiennement et par application topique sur la peau rasée du dos, les produits à étudier (conjugués 1 et 5 représentés par les composés P1 et P2 préparés selon les exemples 1 et 2), mis en solution dans du propylène glycol, sous un volume constant de 50 µl et cela pendant cinq jours consécutifs.
• Composé P1 - Lots 1, 2 et 3 - 2,5 µg, 0,5 µg et 0,1 µg /souris/jour respectivement. • Composé P2 - Lots 4, 5 et 6 - 2,5 µg, 0,5 µg et 0.1 µg /souris/jour respectivement.
Les animaux du lot 10 servent de témoins (ils reçoivent seulement, 50 µl de propylène glycol par application topique pendant cinq jours).
Au cinquième jour, trente minutes après la dernière application toutes les souris sont sensibilisées avec 25 µl de D N F B (2,4-dinitro-1-fluorobenzène (FLUKA CHEMIKA PURUM à 97 % lot n° 33820890)) à 2 % dans un mélange 4 pour 1 d'acétone (SDS réf 0510) et de trioléine (FLUKA) appliqué par voie topique sur la région dorsale de peau rasée.
Au sixième jour, on procède à une nouvelle sensibilisation par application de D N F B.
Au onzième jour, l'épaisseur des oreilles des souris, est mesurée à l'aide d'un micromètre (ROCH 0 à 25 mm au 1/100 mm) afin d'obtenir des valeurs de base, puis les oreilles sont stimulées par application topique de 20 µl de DNFB à 0,8 %.
Au douzième jour, l'épaisseur des oreilles est à nouveau mesurée. On établit la valeur moyenne de l'épaississement des oreilles pour les souris des lots qui ont reçu les produits à étudier, ainsi que pour les souris du lot témoin.
Le pourcentage de suppression éventuelle sera exprimé par le calcul suivant : (T-E)/(T)x100 [formula] avec T pour le pourcentage d'augmentation de l'épaisseur moyenne des oreilles du lot témoin et E pour celui des lots qui ont reçu les produits à étudier.

For test [3], the system named is PGE2. Description: Inhibition of PGE2 production by IL1-stimulated MRC5 fibroblasts, RIA (Example 7). It is filed as cell-based, humaine. An excerpt: Mise en évidence de l'effet inhibiteur des conjugués 1 et 5 (composés P1 et P2) sur la production par des fibroblastes stimulés par l'IL 1, d'un métabolite de l'acide arachidonique, la PGE2.
Nous avons choisi d'utiliser la souche ATCC MRC5 entretenue au laboratoire de façon continue et déjà testée par Cannon et al. (J. Immunol., 1986). Après un repiquage, les fibroblastes sont cultivés dans des micropuits (plaque de 24 puits de 2 cm^2, Falcon). L'innoculum est de 30 000 cellules par puits; le milieu nutritif utilisé est composé de RPMI 1640 (90 %) et de sérum de veau foetal décomplémenté (SVF, 10 %). Le milieu est changé tous les deux jours jusqu'à confluence des cellules.
Les couches monocellulaires ainsi obtenues sont lavées puis préincubées pendant 24 heures dans du milieu frais ne contenant que 1 % de SVF. […] Après 20 minutes d'incubation en présence de ces composés, l'ILI recombinante humaine (Tebu, France) à la concentration de 5, 2,5 ou 0,5 ng/ml de milieu est mise en contact avec des cellules pendant 18 heures. A la fin de cette incubation les surnageants sont prélevés et congelés à - 80 ° C jusqu'à l'analyse. Les couches monocellulaires sont fixées au méthanol.
Le dosage RIA est effectué selon la méthode décrite par Dray et al. (Europ. J. Invest. 1975). 3 séries d'expériences en duplicate ont été réalisées pour chaque concentration de produit étudié et pour les contrôles. Les résultats sont exprimés en pg/µg d'ADN. L'effet inhibiteur est exprimé en pourcentage par rapport aux contrôles.
Afin d'éviter toute erreur possible due au comptage en microscopie optique, l'ADN a été dosé par méthode fluorimétrique selon le protocole décrit par Brunk et al. (Analytical Biochem., 1979).

The mark [4] stands for this setting: 0,1 µg/souris/jour topical for 5 days in propylene glycol.
[5] abbreviates: 0,1 µg/souris/jour topical for 5 days.
Where [6] appears, read: 0,5 µg/souris/jour topical for 5 days in propylene glycol.
The mark [7] stands for this setting: 0,5 µg/souris/jour topical for 5 days.
The mark [8] stands for this setting: 2,5 µg/souris/jour topical for 5 days in propylene glycol.
Where [9] appears, read: 2,5 µg/souris/jour topical for 5 days.

These results are taken from patent EP0837881B1, “CONJUGATES OF alpha-MSH WITH A FATTY ACID, PREPARATION METHOD THEREFOR, AND USE THEREOF AS A DRUG” (INSTITUT EUROPEEN DE BIOLOGIE CELLULAIRE, priority 1995, dated 2004).

The structures appear in SMILES notation. Values joined by “and” are separate entries in the source; they are usually repeats but may differ in a detail not shown here. Equal values may be shown once. Numbered stars: 1 amine (or outer) side, 2 acyl side, 3 side chain; on linkers, the order of the positions; unused ones are H or OH. Square brackets hold non-standard residues; d marks the D form. Peptide text beside a SMILES is read from it. Adipoyl = O=C(CCCCC(=O)[*:2])[*:1]; d(hPhe) = N[C@H](CCc1ccccc1)C(=O)O; hLeu = CC(C)CC[C@H](N)C(=O)O

On to `CC(C)CC[C@H](N)C(=O)N[C@@H](CCC(=O)O)C(=O)N[C@@H](Cc1c[nH]cn1)C(=O)N[C@H](CCc1ccccc1)C(=O)N[C@@H](CCCNC(=N)N)C(=O)N[C@@H](Cc1c[nH]c2ccccc12)C(=O)NCC(N)=O` [Lot II, Me.Nle - Glu - His - D-homo-Phé - Arg - Trp - Gly - NH2] (H-[hLeu]EH[d(hPhe)]RWG-NH2), for which the “suppression de l'hypersensibilité cutanée” value in test [1] (0,1 µg/souris/jour) is on record as 47%; in test [1] (0,5 µg/souris/jour), about 60%; in test [1] (2,5 µg/souris/jour), about 69%.

Regarding `CC(C)CC[C@H](NC(=O)CCCCC(=O)O)C(=O)N[C@@H](CCC(=O)O)C(=O)N[C@@H](Cc1c[nH]cn1)C(=O)N[C@H](CCc1ccccc1)C(=O)N[C@@H](CCCNC(=N)N)C(=O)N[C@@H](Cc1c[nH]c2ccccc12)C(=O)NCC(N)=O` [Conjugué 1, Adipoyl - Me.Nle - Glu - His - D-homo-Phé - Arg - Trp - Gly - NH2] (Adipoyl-[hLeu]EH[d(hPhe)]RWG-NH2), the “% Augment. O. Gauche” value in test [2] (setting [4]) was 21,50%; in test [2] (setting [6]), 19,00%; in test [2] (setting [8]) it was 17,50%. The “% Augment. O. Droite” value in test [2] (setting [4]) is given as 22,00%; in test [2] (setting [6]), 19,50%; in test [2] (setting [8]), 17,80%. Further, the “% Suppress. O. Gauche” value is given as 62,93% in test [2] (setting [5]), 67,24% in test [2] (setting [7]) and 69,80% in test [2] (setting [9]). Moreover, the “% Suppress. O. Droite” value in test [2] (setting [5]) is recorded as 62,39%; in test [2] (setting [7]), 66,66%; in test [2] (setting [9]), 69,57%. The “suppression de la réaction d'hypersensibilité cutanée induite par administration de D N F. B” value in test [2] (matches the 2,5 µg/souris/jour lots of Table 1) is about 69%. For the same molecule, the “% inhib.” value in test [3] (IL1 0,5 ng, conjugate 10^-4 M) was found to be 60%; in test [3] (IL1 0,5 ng, conjugate 10^-5 M), 38%; in test [3] (IL1 0,5 ng, conjugate 10^-6 M), 19%; in test [3] (IL1 0,5 ng, conjugate 10^-7 M), 13%; in test [3] (IL1 0,5 ng, conjugate 10^-8 M) it was 10%; in test [3] (IL1 2,5 ng, conjugate 10^-4 M) it was 53%. Besides, the “% inhib.” value is listed as 40% in test [3] (IL1 2,5 ng, conjugate 10^-5 M); 24% in test [3] (IL1 2,5 ng, conjugate 10^-6 M); 6% in test [3] (IL1 2,5 ng, conjugate 10^-7 M); 13% in test [3] (IL1 2,5 ng, conjugate 10^-8 M); 17% in test [3] (IL1 2,5 ng, conjugate 10^-9 M). Further, the PGE2 in test [3] (IL1 0,5 ng, conjugate 10^-4 M) is 113 ± 25 pg/mg d'ADN; in test [3] (IL1 0,5 ng, conjugate 10^-5 M), 176 ± 37 pg/mg d'ADN; in test [3] (IL1 0,5 ng, conjugate 10^-6 M), 231 ± 55 pg/mg d'ADN; in test [3] (IL1 0,5 ng, conjugate 10^-7 M), 249 ± 60 pg/mg d'ADN; in test [3] (IL1 0,5 ng, conjugate 10^-8 M) it was 258 ± 35 pg/mg d'ADN; in test [3] (IL1 0,5 ng, conjugate 10^-9 M), 364 ± 56 pg/mg d'ADN. Besides, the PGE2 is reported as 179 ± 50 pg/mg d'ADN in test [3] (IL1 2,5 ng, conjugate 10^-4 M); 232 ± 45 pg/mg d'ADN in test [3] (IL1 2,5 ng, conjugate 10^-5 M); 292 ± 68 pg/mg d'ADN in test [3] (IL1 2,5 ng, conjugate 10^-6 M); 364 ± 68 pg/mg d'ADN in test [3] (IL1 2,5 ng, conjugate 10^-7 M); 335 ± 50 pg/mg d'ADN in test [3] (IL1 2,5 ng, conjugate 10^-8 M); 320 ± 43 pg/mg d'ADN in test [3] (IL1 2,5 ng, conjugate 10^-9 M). For the same molecule, in test [3] (Table 2, dose-effect relation, independent of IL1 concentration), the action inhibitrice entry is recorded as “bonne action inhibitrice”. Also, the “action à partir de 10^-7 M” value in test [3] (conjugate 10^-7 M and lower, at both IL1 concentrations (2,5 and 0,5 ng)) is “pas d'action”. Also, the “pouvoir inhibiteur de l'action de l'IL1 et de la PGE2” value in test [3] (summary of Tables 2 and 3) is “possèdent un pouvoir inhibiteur”.

On to `O=C(O)/C=C/CCCCCCCO` [Lot T, Acide trans-10-hydroxy-2-décénoïque], for which, in test [1] (0,01 µg/souris/jour (10 ng) topical in propylene glycol, control substance, one measurement per experiment, left ear), the “% Augment. O. Gauche” value is 55,80% and 57,10%. Moreover, the “% Augment. O. Droite” value in test [1] (0,01 µg/souris/jour (10 ng) topical in propylene glycol, control substance, one measurement per experiment, right ear) is 56,00% and 57,50%. For the same molecule, in test [1] (in solution in propylene glycol, 10 ng per mouse per day), the “effet suppressif de l'hypersensibilité cutanée” value is listed as “pas d'effet suppressif”.
